Patent US20070037835A1, “Pharmaceutical composition comprising a cathepsin s inhibitor and an opioid” (priority 2003, published 2007)
Where a name gives a salt, the structure may show the parent alone.

How the values were obtained:
[1] = system: established mechanical hyperalgesia; test: Chronic neuropathic pain model (Seltzer, partial ligation of the sciatic nerve), paw withdrawal threshold; format: in vivo, Wistar rats; details: mean ± s.e.m.
Source text: Hyperalgesia is examined in the model of neuropathic pain induced by partial ligation of the sciatic nerve as described by Seltzer et al. (1990). Briefly, Wistar rats (120-140 g) are anaesthetised, the left sciatic nerve exposed at mid-thigh level through a small incision and ⅓ to ½ of the nerve thickness tightly ligated within a 7.0 silk suture. The wound is closed with a single muscle suture and skin clips and dusted with Aureomycin antibiotic powder. The animals are allowed to recover and used 12-15 days following surgery. Mechanical hyperalgesia is assessed by measuring paw withdrawal thresholds to an increasing pressure stimulus placed onto the dorsal surface of the paw using an analgesy-meter (Ugo-Basile, Milan) with a cut-off of 250 g. Withdrawal thresholds are measured on both the ipsilateral (ligated) and contralateral (unligated) paw prior to (predose) and then up to 6 h following drug or vehicle administration. Data are expressed as withdrawal threshold (g) and percentage reversal of hyperalgesia calculated according to the following formula: [formula]
Potency is expressed as D50 value, i.e. the dose of the single compound or a COMBINATION OF THE INVENTION necessary to produce 50% reversal of hyperalgesia.
Paw withdrawal thresholds are measured prior to drug treatment (predose) and then at 0.5, 1, 3 and 6 hours following concomitant administration of morphine subcutaneously and the cathepsin inhibitor of formula II orally. Each time point represents data from 6 animals per group. Vehicle is 0.5% methylcellulose, 1 ml p.o./0.9% saline s.c. Statistical analysis is performed on raw data (paw withdrawal thresholds).
Statistical significance, *† P<0.05 by Analysis of variance followed by Dunnett's test.

[2] = system: neuropathic rat nociceptive threshold; test: Naloxone blockade of anti-hyperalgesic effect in neuropathic rats; format: in vivo

CC(C)(C)CCn1c(Cc2ccc(Cl)cc2)cc2cnc(C#N)nc21 [Inhibitor]
% Reversal of Predose Hyperalgesia ([1]; Inhibitor 10 mg/kg p.o., 0.5 h post-dose): 30.3 ± 5.8% | % Reversal of Predose Hyperalgesia ([1]; Inhibitor 10 mg/kg p.o., 1 h post-dose): 22.8 ± 4.6% | % Reversal of Predose Hyperalgesia ([1]; Inhibitor 30 mg/kg, 0.5 h post-dose): 46.7 ± 11.4% | % Reversal of Predose Hyperalgesia ([1]; Inhibitor 30 mg/kg, 1 h post-dose): 54.7 ± 7.1%

CN1CC[C@]23c4c5ccc(O)c4O[C@H]2[C@@H](O)C=C[C@H]3[C@H]1C5 [Morphine, morphine]
% Reversal of Predose Hyperalgesia ([1]; Morphine 1 mg/kg s.c., 0.5 h post-dose): 4.4 ± 2.8% | % Reversal of Predose Hyperalgesia ([1]; Morphine 1 mg/kg s.c., 1 h post-dose): 6.5 ± 2.9%

C=CCN1CC[C@]23c4c5ccc(O)c4O[C@H]2C(=O)CC[C@@]3(O)[C@H]1C5 [Naloxone hydrochloride]
effect on neuropathic rat nociceptive threshold ([2]; naloxone alone, 0.1 mg/kg): devoid of any effect | effect on the anti-hyperalgesic effect induced by the compound of formula II ([2]; neuropathic rats, naloxone 0.1 mg/kg): blocks the anti-hyperalgesic effect
